# Assays:
# Assay in all cases: relative viability (nuclei count vs DMSO), 5 days (fraction); higher = more cells survive
# Pemetrexed = compound: Nc1nc2[nH]cc(CCc3ccc(C(=O)N[C@@H](CCC(=O)O)C(=O)O)cc3)c2c(=O)[nH]1 [Pemetrexed]
# Method in brief: (§1)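 Viability here means nuclei in treated wells divided by nuclei in vehicle wells, reported as the median across plates. Only plates with control CV below 25% and at least one doubling passed. Lung cancer cell lines in 1536-well plates were exposed to five √10-spaced library-drug doses for 5 days and counted from 4× Hoechst images in MetaXpress.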
# Idelalisib = compound: CC[C@H](Nc1ncnc2[nH]cnc12)c1nc2cccc(F)c2c(=O)n1-c1ccccc1 [Idelalisib]
# Method in brief: as §1
# Pemetrexed + Linsitinib = compound: Nc1nc2[nH]cc(CCc3ccc(C(=O)N[C@@H](CCC(=O)O)C(=O)O)cc3)c2c(=O)[nH]1 [Pemetrexed] + C[C@]1(O)C[C@@H](c2nc(-c3ccc4ccc(-c5ccccc5)nc4c3)c3c(N)nccn32)C1 [Linsitinib] (partner 1 µM)
# Method in brief: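 The day after seeding in 1536-well plates, lung cancer cell lines were treated by pin tool with a single drug, or with a fixed anchor-drug dose together with five library-drug doses (not always all listed) in √10 steps. After 5 days, a combined fix-and-stain solution (final 0.05% Triton X-100, 1% formaldehyde, 1 ug/ml Hoechst) was added. Nuclei counted on 4× images gave relative viability as treated counts over vehicle counts, reported as the median of duplicate plates.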
cell line,measurement,setting,value
UMC-11,relative viability,Pemetrexed; 0.002 µM,0.996
same,relative viability,Pemetrexed; 0.006325 µM,0.955
same,relative viability,Pemetrexed; 0.02 µM,1.04
same,relative viability,Pemetrexed; 0.06325 µM,1.03
same,relative viability,Pemetrexed; 0.2 µM,0.846
same,relative viability,"Pemetrexed; 0.2 µM, anchor plate",0.805
same,relative viability,Idelalisib; 0.04 µM,1.04
same,relative viability,Idelalisib; 0.1265 µM,1.05
same,relative viability,Idelalisib; 0.4 µM,0.921
same,relative viability,Idelalisib; 1.265 µM,1.01
same,relative viability,Idelalisib; 4 µM,0.984
same,relative viability,Pemetrexed + Linsitinib; first compound 0.002 µM,0.836
same,relative viability,Pemetrexed + Linsitinib; first compound 0.006325 µM,1.03
same,relative viability,Pemetrexed + Linsitinib; first compound 0.02 µM,1.08
same,relative viability,Pemetrexed + Linsitinib; first compound 0.06325 µM,0.985
same,relative viability,Pemetrexed + Linsitinib; first compound 0.2 µM,0.903
